Data as given in patent US11992497B2 (priority 2021, dated 2024).
Entries after “also recorded” stand apart in the source; their conditions may differ. Like-named read-outs stand apart in the source and are kept apart here.

Legend:
PTZ-induced seizure = experiment: PTZ-induced epilepsy mouse model; type: in vivo; details: for Latency to Clonic Seizure Event compared to PTZ alone / Latency to First Seizure Event compared to PTZ alone / Latency to Tonic Seizure Event compared to PTZ alone / Percent of animals reaching Tonic-clonic Stage 6 compared to PTZ alone / Racine scores over 5 minute intervals for 30 minutes compared to PTZ alone / Survival Effects: mortality rate compared to the vehicle/PTZ group: PTZ 80 mg/kg, CBD 100 mg/kg 60 minutes prior, Compound 3 100 mg/kg 30 minutes prior to PTZ
Text: Mouse models using GABAa receptor antagonist Pentylenetetrazol (PTZ) are well defined and used as a standard for the identification of potential anticonvulsants to treat generalized clonic seizures (Loscher et al., 1991 Epilepsy Res 8:171-189). The purpose of this study was to evaluate and compare CBD to test article Compound 3, on their therapeutic effects in a mouse model of PTZ-induced seizure. To match up test article plasma concentration time max (Tmax) with the PTZ induced seizures; test articles were administered at 60 minutes and 30 minutes prior to PTZ administration respectively. Vehicle used for treatment groups was 10% EtOH/10% Tween 80/80% Saline.
Mice were acclimated to the procedure room for at least 30 minutes.
Pentylenetetrazole (PTZ; Sigma Aldrich) was formulated in water to a concentration of 16 mg/mL. Injections of PTZ were made at a volume of 5 mL/kg to produce a final dose of 80 mg/kg. […] A 30- • minute maximum latency to seizure was imposed. • Clinical behavior was scored using the following adapted Racine scale: • Score 0, no seizures observed • Score 1, Behavioral arrest (freezing, fixed gaze, staring), vibrissae twitching, • mouth or facial clonus • Score 2, Pop or jump, straub tail, foot splay, head nodding • Score 3, Forelimb clonus, extended forelimbs, multiple pops or jerks • Score 4, Rearing and bilateral forelimb clonus, Running and running/bouncing • Score 5, All limb clonus, rearing and falling (stay fallen on rear side) • Score 6, Tonic hindlimb extensions, cardiac arrest
Behavior was scored by an observer blind to treatment. The highest score reached during every 5 minute period during the 30 minutes after PTZ was administered was recorded. Additionally, the percent tonic-clonic (number of animals progressing to the highest seizure score), and percent mortality was also calculated.

[1] = PK and Tmax of CBD and Compound 3 after IP administration; type: in vivo; details: male C57BL/6 mice; for Cmax / AUC(0-t): mouse, in vivo; for AUC(0-t): read-out: AUC(0-t) (obs area)
Text: The purpose of this study was to determine the pharmacokinetics and time of maximum plasma (Tmax) of the test articles (TA) CBD and Compound 3 following intraperitoneal (IP) administration to male C57BL/6 mice. This method of TA delivery, dose and mouse strain was to be used in a subsequent Pentylenetetrazol (PTZ) induced seizure model for the evaluation of the TA's for anti-epileptic activity.

[2] = tested on: lipopolysaccharide (LPS)-induced inflammation; experiment: Rat LPS model, serum pro-inflammatory cytokines; type: in vivo, Sprague Dawley rats; details: oral, 4 days; 2 h after LPS
Protocol: This assay was employed to determine the efficacies of CBG, compound 1, and compound 2 against lipopolysaccharide (LPS)-induced inflammation in Sprague Dawley rats.
Eight- to 10-week-old male rats were treated with CBG, Compound 1, and Compound 2, or a positive control (cyclosporin A) for four days prior to treatment with LPS. Twenty-eight (28) Sprague Dawley male rats, 8-10 weeks old, were used for this study. Animals were randomized by weight into one of 7 treatment groups as shown in Table 10 below and treated for 4 days with either vehicle control (Groups 1 and 2), Cyclosporin A (Neoral) (Group 3), CBG at 30 mg/kg (Group 4), Compound 1 at 31.5 mg/kg (Group 5), Compound 2 at 32.7 mg/kg (Group 6) or CBG at 30 mg/kg (intraperitoneal/IP; Group 7). Groups 1-6 were dosed for 4 days by oral gavage; group 7 was dosed for 4 days by IP injection. After the 4th injection, Groups 2-7 received a single IP injection of LPS at 5 mg/kg to induce inflammation. Body weight was recorded every other day starting on the day of or day prior to the first day of treatment. A terminal body weight was recorded. General health and clinical signs were recorded once daily. Blood was collected to isolate immune cells at 2 hours after the LPS injection. […]
Serum samples (N=82) were processed and shipped to Inotiv Boulder for analysis. […] The samples were analyzed for cytokine levels using the RECYTMAG-65K Luminex™ kit. […]

UGT1A4 = target: T1, UGT1A4 (Homo sapiens, UniProt P22310); experiment: UGT reaction phenotyping, recombinant Supersomes; type: in vitro ADME
T1 construct: purchased BD Biosciences
T1 sequence (P22310 29-534): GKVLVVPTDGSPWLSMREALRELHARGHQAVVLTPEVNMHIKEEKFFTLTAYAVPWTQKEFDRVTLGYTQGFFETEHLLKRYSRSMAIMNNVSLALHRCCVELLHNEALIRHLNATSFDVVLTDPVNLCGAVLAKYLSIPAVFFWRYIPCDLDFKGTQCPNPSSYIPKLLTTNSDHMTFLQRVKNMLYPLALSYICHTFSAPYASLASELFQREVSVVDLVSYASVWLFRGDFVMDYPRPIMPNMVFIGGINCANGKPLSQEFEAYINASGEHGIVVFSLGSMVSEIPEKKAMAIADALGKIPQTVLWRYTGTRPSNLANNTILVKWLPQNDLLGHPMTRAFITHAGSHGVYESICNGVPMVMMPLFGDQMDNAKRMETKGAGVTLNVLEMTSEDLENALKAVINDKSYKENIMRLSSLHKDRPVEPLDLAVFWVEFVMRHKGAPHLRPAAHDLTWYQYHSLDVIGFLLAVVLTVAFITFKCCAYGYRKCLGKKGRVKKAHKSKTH
Text: Experimental Summary: UGT Reaction Phenotyping (7 Isoforms).

HCT116 = experiment: GI50 by MTS assay; type: cell-based; details: MTS assay, HCT116, 48 hours
Protocol: For MTS assay, the compounds have been tested at 8 concentrations on 4 colon cancer cell lines for 48 hours. The compounds, concentrations and colon cancer cell line panel tested are the following: • CBG: 0 μM, 1.25 μM, 2.5 μM, 5 μM, 10 μM, 20 μM, 40 μM, and 80 μM. • Compound 1: 0 μM, 1.25 μM, 2.5 μM, 5 μM, 10 μM, 20 μM, 40 μM, and 80 μM. • Compound 2: 0 μM, 1.25 μM, 2.5 μM, 5 μM, 10 μM, 20 μM, 40 μM, and 80 μM. • Colon cancer cell line panel: SW620, HCT15, HT29, HCTl16
Four colon cancer cell lines of SW620, HCT15, HT29, and HCT116 were included in the colon cancer cell line panel.
CBG, compound 1 and compound 2 were dissolved in DMSO at a concentration of 10 mM and stored at −20° C.
Evaluation of DM compounds treatment-induced growth inhibition was performed to determine the GI50 of four colon cancer cell lines with MTS assay or clonogenic assay. Each experiment was repeated in triplicate. In GraphPad Prism, data were log-transformed and fit with a nonlinear curve to calculate the GI50.
MTS assay. cells were plated at 96 well plates at a density of 1,000 cells per well. After 24 hours, cells were treated with DM compounds at increasing concentrations or DMSO vehicle and incubated for 48 hours. 20 μl of MTS reagent (Promega) was then added and incubated for 2 hours. The absorbance was measured with a microplate reader at 490 nm. Each experiment was repeated in triplicate. In GraphPad Prism, data were log-transformed and fit with a nonlinear curve to calculate the GI50.

Structure (SMILES)	Latency to Clonic Seizure Event compared to PTZ alone (PTZ-induced seizure)	Latency to First Seizure Event compared to PTZ alone (PTZ-induced seizure)	Latency to Tonic Seizure Event compared to PTZ alone (PTZ-induced seizure)	Percent of animals reaching Tonic-clonic Stage 6 compared to PTZ alone (PTZ-induced seizure)	Racine scores over 5 minute intervals for 30 minutes compared to PTZ alone (PTZ-induced seizure)	Survival Effects: mortality rate compared to the vehicle/PTZ group (PTZ-induced seizure)	Cmax ([1]; plasma, 100 mg/kg IP) [ng/mL]	AUC(0-t) ([1]; plasma, 100 mg/kg IP) [ng·h/mL]	also measured
C=C(C)[C@@H]1CCC(C)=C[C@H]1c1c(O)cc(CCCCC)cc1O [CBD, cannabidiol, reference compound]	did not yield a significantly different latency	did not result in a difference in latency to first seizure	did not yield a significantly different latency	did not yield a significantly difference in proportion; also recorded: did not yield a significant difference in proportion	did not yield a significant change in clinical score	did not yield a significantly reduced mortality rate	2730	6830	Tmax (in words) ([1]; IP): two separate Tmax peaks
C=C(C)[C@@H]1CCC(C)=C[C@H]1c1c(O)cc(CCCCC)cc1OC [Compound 3, (1′R,2′R)-6-methoxy-5′-methyl-4-pentyl-2′-(prop-1-en-2-yl)-1′,2′,3′,4′-tetrahydro-[1,1′-biphenyl]-2-ol]	did not yield a significantly different latency; also recorded: strong trend toward longer latency	trended towards a longer latency than PTZ alone, although the difference was not significant	significantly longer latency	significantly lower proportion	significant improvement in Racine scores	significantly reduced mortality rate	21800	30200	reduction of IL-1B and IFNy relative to CBG (in words) [2]: equal to or better than CBG; overall anti-epileptic activity (in words) (PTZ-induced seizure; PTZ seizure model): clear anti-epileptic therapeutic activity; Cmax relative to CBD ([1]; IP): 8 fold; plasma PK Area Under the Curve (AUC) relative to CBD ([1]; IP): over 4 fold; TMax ([1]; plasma, 100 mg/kg IP): 0.5 h
C[N+]1([C@@H]2O[C@H](C(=O)[O-])[C@@H](O)[C@H](O)[C@H]2O)CCN(CCCN2c3ccccc3Sc3ccc(C(F)(F)F)cc32)CC1 [Trifluoperazine Glucuronide]	–	–	–	–	–	–	–	–	average peak area ratio at 60 min/average peak area ratio at 0 min (printed in the half-life column) (UGT1A4; Test Conc. 1 μM): *6.38
CN1CCN(CCCN2c3ccccc3Sc3ccc(C(F)(F)F)cc32)CC1 [Trifluoperazine, trifluoperazine]	–	–	–	–	–	–	–	–	microsomal CLint at 1 µM (UGT1A4; human, recombinant UGT1A4 Supersomes, pH 7.4, Test Conc. 1 μM, read-out: Recombinant UGT CLINT Clearance): 0.7 µL/min/mg; half-life at 1 µM (UGT1A4; human, recombinant UGT1A4 Supersomes, pH 7.4, Test Conc. 1 μM, read-out: Recombinant UGT Half Life T1/2): 16.4 h
CCCCCc1cc(O)c(C/C=C(\C)CCC=C(C)C)c(OC)c1 [Cmpd1]	–	–	–	–	–	–	–	–	GI50 (HCT116; average of N1-N3, read-out: GI50 AVG): 10.3 µM; GI50 (HCT116; replicate N1, read-out: GI50 N1): 10.5 µM; GI50 (HCT116; replicate N2, read-out: GI50 N2): 9.96 µM; GI50 (HCT116; replicate N3, read-out: GI50 N3): 10.5 µM
